These results are taken from US20060045953A1 (priority 2004, published 2006).

Each structure is given as a SMILES string. Like-named read-outs stand apart in the source and are kept apart here.

For this assay, the target named is T1, hT1R1/hT1R3 umami receptor (Homo sapiens, UniProt Q7RTX0+Q7RTX1).
T1 construct: expressed in transfected cells; host or cells: HEK293 derivative stably expressing Gα15, clone I-17, expression induced with mifepristone
T1 sequence (Q7RTX1 21-841): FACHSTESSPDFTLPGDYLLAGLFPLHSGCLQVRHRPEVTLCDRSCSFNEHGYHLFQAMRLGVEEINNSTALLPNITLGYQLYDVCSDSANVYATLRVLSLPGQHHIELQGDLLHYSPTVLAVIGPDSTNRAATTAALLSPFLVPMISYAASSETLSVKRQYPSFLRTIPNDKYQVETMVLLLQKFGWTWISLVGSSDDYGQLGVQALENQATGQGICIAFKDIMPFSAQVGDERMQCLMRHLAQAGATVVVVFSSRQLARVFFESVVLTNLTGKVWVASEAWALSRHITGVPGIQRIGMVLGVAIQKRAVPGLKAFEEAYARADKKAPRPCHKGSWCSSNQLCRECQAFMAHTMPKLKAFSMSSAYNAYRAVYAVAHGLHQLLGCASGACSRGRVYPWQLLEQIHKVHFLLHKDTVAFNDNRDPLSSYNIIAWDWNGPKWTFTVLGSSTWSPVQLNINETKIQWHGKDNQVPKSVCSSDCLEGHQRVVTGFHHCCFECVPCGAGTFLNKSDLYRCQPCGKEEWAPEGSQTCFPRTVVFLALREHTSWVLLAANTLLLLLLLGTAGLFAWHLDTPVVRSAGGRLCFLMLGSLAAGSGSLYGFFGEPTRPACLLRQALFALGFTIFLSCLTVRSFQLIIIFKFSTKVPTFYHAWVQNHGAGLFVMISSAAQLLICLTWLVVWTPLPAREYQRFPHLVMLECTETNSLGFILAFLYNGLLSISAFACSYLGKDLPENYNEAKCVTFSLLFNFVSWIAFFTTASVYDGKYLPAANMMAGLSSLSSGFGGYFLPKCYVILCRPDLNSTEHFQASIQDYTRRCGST
T1 sequence (Q7RTX0 21-852): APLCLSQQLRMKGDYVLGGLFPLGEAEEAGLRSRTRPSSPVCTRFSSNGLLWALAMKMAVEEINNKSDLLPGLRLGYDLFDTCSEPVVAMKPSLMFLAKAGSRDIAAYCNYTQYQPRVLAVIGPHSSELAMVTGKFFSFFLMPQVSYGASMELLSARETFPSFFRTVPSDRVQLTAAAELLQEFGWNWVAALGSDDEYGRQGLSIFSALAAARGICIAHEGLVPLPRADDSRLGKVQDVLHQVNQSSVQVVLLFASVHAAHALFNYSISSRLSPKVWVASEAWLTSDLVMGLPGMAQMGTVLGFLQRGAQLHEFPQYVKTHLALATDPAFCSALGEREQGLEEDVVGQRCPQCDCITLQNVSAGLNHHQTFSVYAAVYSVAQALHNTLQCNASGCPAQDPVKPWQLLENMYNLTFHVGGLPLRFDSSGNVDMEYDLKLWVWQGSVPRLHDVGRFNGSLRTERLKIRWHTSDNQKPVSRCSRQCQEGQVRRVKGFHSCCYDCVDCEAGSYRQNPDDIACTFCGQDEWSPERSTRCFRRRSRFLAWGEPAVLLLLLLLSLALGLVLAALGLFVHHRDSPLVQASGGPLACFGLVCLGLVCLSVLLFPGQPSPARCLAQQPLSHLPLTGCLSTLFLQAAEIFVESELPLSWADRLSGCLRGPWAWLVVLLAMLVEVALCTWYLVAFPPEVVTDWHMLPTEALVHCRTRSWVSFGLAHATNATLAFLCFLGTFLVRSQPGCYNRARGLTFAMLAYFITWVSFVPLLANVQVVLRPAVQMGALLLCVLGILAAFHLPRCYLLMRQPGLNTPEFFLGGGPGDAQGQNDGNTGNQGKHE
In words: In vitro hT1R1/hT1R3 umami taste receptor activation assay (FLIPR, dose response). It counts as cell-based.

Setting [1] is: Table A, Umami Amides, read-out: Umami EC50.
The mark [2] stands for this setting: read-out: EC50 for activation of a hT1R1/hT1R3 umami receptor expressed in an HEK293 cell line.

Turning to `COc1ccc(C(=O)NC2CCc3cccc(C)c32)cc1C` (stereo not drawn) [Example A129, 4-methoxy-3-methyl-N-(7-methyl-2,3-dihydro-1H-inden-1-yl)benzamide], the EC50 under setting [1] is 1.03 µM.

Turning to `Cc1ccccc1CNC(=O)C(=O)NCCc1ccccn1` [Example 145], the EC50 under setting [2] was found to be 0.59 µM.

Consider `O=C(NCCc1ccccn1)C(=O)NCc1nc2ccccc2s1` [Example 151, N-(Benzo[d]thiazol-2-ylmethyl)-N′-(2-(pyridin-2-yl)ethyl)oxalamide], for which the EC50 under setting [2] was 4.4 µM.

As to `CCCC(CCC)NC(=O)c1ccc(Cl)c(C)c1` [Example 64, 4-Chloro-3-methyl-N-(1-propyl-butyl)-benzamide], under setting [2], the EC50 was found to be 0.8 µM.

Consider `CCCC(CCC)NC(=O)c1ccc(OCCOC)c(C)c1` [Example 59, N-(heptan-4-yl)-4-(2-methoxyethoxy)-3-methylbenzamide], for which, under setting [2], the EC50 stood at 0.21 µM.

On to `CCCC(CC)NC(=O)c1ccc(C)c(SC)c1` (stereo not drawn) [Example A81, N-(hexan-3-yl)-4-methyl-3-(methylthio)benzamide], for which the EC50 under setting [1] was 0.5 µM.

`COc1cccc(C(=O)N[C@H]2CCCc3ccccc32)c1N`: the EC50 (opposite enantiomers compared, read-out: AFFINITY FOR T1R1/T1R3 SAVORY RECEPTOR EC50 UM) amounted to 0.01 µM.

Regarding `CCCC(CCC)NC(=O)c1cc(C)nn1C` [Example 99, N-(heptan-4-yl)-1,3-dimethyl-1H-pyrazole-5-carboxamide], under setting [2], the EC50 is 7.8 µM.

`CSc1ccccc1CNC(=O)C(=O)NCCc1ccccn1` [Example 147, N-(2-(Methylthio)benzyl)-N′-(2-(pyridin-2-yl)ethyl)oxalamide]: the EC50 under setting [2] was 0.96 µM.

For the compound `COC(=O)C(CC(C)C)NC(=O)c1cc2cc(OC)ccc2o1` (stereo in doubt) [Example A6, 2-[(5-Methoxy-benzofuran-2-carbonyl)-amino]-4-methyl-pentanoic acid methyl ester], the EC50 under setting [1] came to 0.32 µM.

On to `COCC(NC(=O)c1ccc(C)c(C)c1)C(C)C` (stereo not drawn) [Example 73, N-(1-Methoxymethyl-2-methyl-propyl)-3,4-dimethyl-benzamide], for which the EC50 under setting [2] stood at 0.87 µM.

On to `COc1ccc(C(=O)N[C@H](C)c2ccccc2)cc1Cl` [Example 63, (R)-3-chloro-4-methoxy-N-(1-phenylethyl)benzamide], for which the EC50 under setting [2] was found to be 2.5 µM.

Consider `C=Cc1ccc(C(=O)N[C@H]2CCCc3ccccc32)cc1` [Example A105, (S)-N-(1,2,3,4-tetrahydronaphthalen-1-yl)-4-vinylbenzamide], for which the EC50 under setting [1] is 1.38 µM.

In the case of `CCC(CC(C)C)NC(=O)c1ccc(C)c(C)c1` (stereo not drawn) [Example 70, 3,4-dimethyl-N-(5-methylhexan-3-yl)benzamide], the EC50 under setting [2] amounted to 0.17 µM.

Take `COc1ccc(CNC(=O)c2sccc2C)c(OC)c1` [Example 108, 3-Methyl-thiophene-2-carboxylic acid 2,4-dimethoxy-benzylamide]: under setting [2], the EC50 is 5.6 µM.

As to `CCCC(CCC)NC(=O)c1cc(C)c(C)o1` [Example A31, N-(heptan-4-yl)-4,5-dimethylfuran-2-carboxamide], the EC50 under setting [1] came to 0.62 µM.

As to `CCCC(CCC)NC(=O)c1ccc2occc2c1` [Example 90, N-(heptan-4-yl)benzofuran-5-carboxamide], the EC50 under setting [2] worked out at 1.19 µM.

On to `COC[C@@H](CC(C)C)NC(=O)c1ccc(SC)c(C)c1` [Example A65, (R)-N-(1-methoxy-4-methylpentan-2-yl)-3-methyl-4-(methylthio)benzamide], for which the EC50 under setting [1] turned out to be 0.29 µM.
